# Source: patent publication US20240174690A1, “ANNULATED 2-AMINO-3-CYANO THIOPHENES AND DERIVATIVES FOR THE TREATMENT OF CANCER” (BOEHRINGER INGELHEIM INTERNATIONAL GMBH, priority 2021, published 2024)
# pIC50: −log10 of the molar value. Where two headings read alike, the source gives them in different places.
# How the values were obtained:
# [1] = biological target: KRAS (G12D)::SOS1 (Homo sapiens (Human), UniProt P01116, G12D); assay: KRAS::SOS1 AlphaScreen binding assay, KRAS G12D
# Description: (§1) This assay can be used to examine the potency with which compounds according to the invention binding to (mutated) KRAS inhibit the protein-protein interaction between SOS1 and (mutated) KRAS e.g., KRAS WT, KRAS G12C, KRAS G12D, KRAS G12V, KRAS G13D. […] Low IC50 values in this assay setting are indicative of strong inhibition of protein-protein interaction between SOS1 and KRAS:
# (§2) These assays measure the inhibitory effect of compounds on KRAS mutant protein-protein interactions using the Alpha Screen technology by Perkin Elmer.
# (§3) The following (mutant) enzyme forms of KRAS and interacting proteins are used in these assays at the given concentrations: • KRAS (G12D) 1-169, N-terminal 6His-tag, C-terminal avi-tag (Xtal BioStructures, Inc.); final assay concentration 10 nM and SOS1 564-1049, N-terminal 229 GST-tag, TEV cleavage site (Viva Biotech Ltd); final assay concentration 5 nM; • KRAS (G12C) 1-169, N-terminal 6His-tag for purification, cleaved off, C-terminal avi-tag, biotinylated, mutations: C51S, C80L, C118S (in house); final assay concentration 7.5 nM and SOS1 564-1049, N-terminal 229 GST-tag, TEV cleavage site (Viva Biotech Ltd); final assay concentration 5 nM; • KRAS (G12V) 1-169, N-terminal 6His-tag for purification, cleaved off, C-terminal avi-tag, biotinylated, TEV cleavage site, mutation: C118S, GDP loaded (in house); final assay concentration 10 nM and SOS1 564-1049, N-terminal 229 GST-tag, TEV cleavage site (Viva Biotech Ltd); final assay concentration 10 nM; • KRAS (G13D) 1-169, N-terminal 6His-tag for purification, cleaved off, C-terminal avi-tag, biotinylated, TEV cleavage site, mutation: C118S, GDP loaded (in house); final assay concentration 10 nM and SOS1 564-1049, N-terminal 229 GST-tag, TEV cleavage site (Viva Biotech Ltd); final assay concentration 10 nM; • KRAS (WT) 1-169, N-terminal 6His-tag for purification, cleaved off, C-terminal avi-tag, biotinylated, TEV cleavage site, mutation: C118S, GDP loaded (in house); final assay concentration 10 nM and SOS1 564-1049, N-terminal 229 GST-tag, TEV cleavage site (Viva Biotech Ltd); final assay concentration 10 nM.
# (§4) Test compounds dissolved in DMSO are dispensed onto assay plates (Proxiplate 384 PLUS, white, PerkinElmer; 6008289) using an Access Labcyte Workstation with the Labcyte Echo 55×. For the chosen highest assay concentration of 100 μM, 150 nL of compound solution are transferred from a 10 mM DMSO compound stock solution. A series of eleven fivefold dilutions per compound are transferred to the assay plate, compound dilutions are tested in duplicates. DMSO are added as backfill to a total volume of 150 nL.
# (§5) The assays run on a fully automated robotic system in a darkened room below 100 Lux. To 150 nl of compound dilution 10 μl of a mix including KRAS mutant protein, SOS1 (final assay concentrations see above) and GDP nucleotide (Sigma G7127; final assay concentration 10 μM) in assay buffer (1×PBS, 0.1% BSA, 0.05% Tween 20) are added into columns 1-24.
# (§6) After 30 minutes incubation time 5 μl of Alpha Screen bead mix in assay buffer are added into columns 1-23. Bead mix consists of AlphaLISA Glutathione Acceptor Beads (PerkinElmer, Cat No AL109) and AlphaScreen Streptavidin Donor Beads (PerkinElmer Cat No 6760002) in assay buffer at a final assay concentration of 10 μg/ml each.
# (§7) Plates are kept at room temperature in a darkened incubator. After an additional 60 minutes incubation time the signal is measured in a PerkinElmer Envision HTS Multilabel Reader using the AlphaScreen specs from PerkinElmer.
# (§8) Each plate contains up to 16 wells of a negative control depending on the dilution procedure (platewise or serial) (DMSO instead of test compound; with KRAS mutant::SOS1 GDP mix and bead mix; column 23) and 16 wells of a positive control (DMSO instead of test compound; with KRAS mutant::SOS1 GDP mix w/o bead mix; column 24).
# (§9) As internal control known inhibitors of KRAS mutant::SOS1 interaction can be measured on each compound plate. […]
# [2] = test system: MKN1 cells; assay: MKN1 CTG proliferation assay (120 h) (gastric cancer, wt amplified); assay type: cell-based; conditions: Homo sapiens
# Method: MKN1 CTG Proliferation Assay (120 h) (Gastric Cancer, Wt Amplified)
# MKN1 cells (JCRB0252) are dispensed into white 384-well plates, flat and white bottom (Corning Costar, PNr.: 3570) at a density of 400 cells per well in 50 μL RPMI 1640 (PAN-Biotech, PNr.: P04-18047)+10% FCS (HyClone, PNr.: SH30084.03) (assay 1) or into white 384-well plates, flat and white bottom (Perkin Elmer, 6007680) at a density of 500 cells per well in 40 μl RPMI (Gibco, PNr.: 21875034)+10% FCS (HyClone, PNr.: SH30084.03) (assay 2) or into black 384-well plates, flat and clear bottom (Greiner, PNr. 781091) at a density of 200 cells per well in 60 μl RPMI-1640 (Gibco #A10491)+10% FCS (HyClone, PNr.: SH30084.03)+PenStrep (Gibco, PNr.15140-122) (assay 3). […] Compounds (10 mM stock in DMSO) are added at logarithmic dose series using the HP Digital Dispenser D300 (Tecan) (assay 1+2) or the ECHO acoustic liquid handler system (Beckman Coulter) (assay 3), including DMSO controls and normalizing for added DMSO. Plates are incubated for 120 h, and cell viability is measured using CellTiter-Glo luminescent cell viability reagent (Promega product code G7570). Viability (stated as percent of control) is defined as relative luminescence units RLU of each well divided by the RLU of cells in DMSO controls. IC50 values are determined from viability measurements by non-linear regression using a four-parameter model.
# [3] = biological target: KRAS (WT)::SOS1 (Homo sapiens (Human), UniProt P01116, C118S); assay: KRAS::SOS1 AlphaScreen binding assay, KRAS WT
# KRAS (WT)::SOS1, sequence (P01116 other isoform, or with tags, fused parts or gaps C118S): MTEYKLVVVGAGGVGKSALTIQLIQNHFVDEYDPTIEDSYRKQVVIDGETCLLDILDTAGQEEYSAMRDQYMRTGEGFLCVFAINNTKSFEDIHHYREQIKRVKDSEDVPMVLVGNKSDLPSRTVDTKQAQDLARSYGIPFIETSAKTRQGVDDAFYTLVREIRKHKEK
# Description: as §1, §2, §3, §4, §5, §6, §7, §8, §9
# [4] = MKN-1, assay 3, CTG 120 h, read-out: MKN1 (assay 3) IC50
# KRAS (G12D)::SOS1, sequence (P01116 other isoform, or with tags, fused parts or gaps G12D): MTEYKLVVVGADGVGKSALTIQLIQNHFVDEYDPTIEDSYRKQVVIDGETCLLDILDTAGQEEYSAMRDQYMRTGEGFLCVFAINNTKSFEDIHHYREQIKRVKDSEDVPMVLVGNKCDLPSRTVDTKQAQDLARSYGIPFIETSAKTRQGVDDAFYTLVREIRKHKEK
Compound,pIC50 [1],"pIC50 [2, 4]",pIC50 [3],"pIC50 ([2]; MKN-1, assay 2, CTG 120 h, read-out: MKN1 (assay 2) IC50)","pIC50 ([2]; MKN-1, assay 1, CTG 120 h, read-out: MKN1 (assay 1) IC50)"
C[C@H](Oc1cc(-c2ccn(-c3ccccc3)n2)nc(-c2noc3c2CCC[C@@]32CCCc3sc(N)c(C#N)c32)n1)[C@@H]1CCCN1C [II-89],7.92,6.20,–,–,–
COC(=O)c1ccc(-c2cc(O[C@@H](C)[C@@H]3CCCN3C)nc(-c3noc4c3CCC[C@@]43CCCc4sc(N)c(C#N)c43)n2)o1 [II-114],8.52,6.45,–,–,–
C[C@H](Oc1cc(-n2ccnc2)nc(-c2noc3c2CCC[C@@]32CCCc3sc(N)c(C#N)c32)n1)[C@@H]1C[C@@H](F)CN1C [II-120],8.05,6.63,–,–,–
C[C@H](Oc1cc([C@@H]2CCOC2)nc(-c2noc3c2CCC[C@@]32CCCc3sc(N)c(C#N)c32)n1)[C@@H]1CCCN1C [II-94],9.00,7.29,8.52,–,7.49
C[C@H](Oc1cc(-c2cnn(C)n2)nc(-c2noc3c2CCC[C@@]32CCCc3sc(N)c(C#N)c32)n1)[C@@H]1CCCN1C [II-86],8.30,–,8.30,–,–
C[C@H](Oc1cc(N2CCN(C)C2=O)nc(-c2noc3c2CCC[C@@]32CCCc3sc(N)c(C#N)c32)n1)[C@@H]1CCCN1C [II-75],9.00,6.97,–,–,–
C[C@H](Oc1cc(N2CCOC3(COC3)C2)nc(-c2noc3c2CCC[C@@]32CCCc3sc(N)c(C#N)c32)n1)[C@@H]1CCCN1C [II-77],9.00,7.74,8.40,–,–
CO[C@@H]1C[C@@H]([C@H](C)Oc2cc(-c3ccn(C)n3)nc(-c3noc4c3CCC[C@@]43CCCc4sc(N)c(C#N)c43)n2)N(C)C1 [II-91],8.40,6.61,–,–,–
C[C@H](Oc1cc(-c2cn[nH]c2)nc(-c2noc3c2CCC[C@@]32CCCc3sc(N)c(C#N)c32)n1)[C@@H]1CCCN1C [II-87],8.52,6.52,–,–,–
C[C@H](Oc1cc(N2CCCC3(COC3)C2)nc(-c2noc3c2CCC[C@@]32CCCc3sc(N)c(C#N)c32)n1)[C@@H]1CCCN1C [II-72],8.70,7.17,–,–,–
C[C@H](Oc1cc(-n2cncn2)nc(-c2noc3c2CCC[C@@]32CCCc3sc(N)c(C#N)c32)n1)[C@@H]1CCCN1C [II-70],8.70,6.41,–,–,–
C[C@H](Oc1cc(-c2cnsc2)nc(-c2noc3c2CCC[C@@]32CCCc3sc(N)c(C#N)c32)n1)[C@@H]1CCCN1C [II-111],8.52,–,8.40,–,–
C[C@H](Oc1cc(N2Cc3cnn(C)c3C2)nc(-c2noc3c2CCC[C@@]32CCCc3sc(N)c(C#N)c32)n1)[C@@H]1CCCN1C [II-63],7.92,6.24,–,–,–
C[C@H](Oc1cc(N2CCNC3(CC3)C2)nc(-c2noc3c2CCC[C@@]32CCCc3sc(N)c(C#N)c32)n1)[C@@H]1CCCN1C [II-54],9.00,–,8.52,–,–
C[C@H](Oc1cc(N2C[C@H](C)N[C@@H](C)C2)nc(-c2noc3c2CCC[C@@]32CCCc3sc(N)c(C#N)c32)n1)[C@@H]1CCCN1C [II-56],9.00,6.18,–,–,–
C[C@H](Oc1cc(-c2cn(C3CCOCC3)nn2)nc(-c2noc3c2CCC[C@@]32CCCc3sc(N)c(C#N)c32)n1)[C@@H]1CCCN1C [II-115],7.89,–,–,–,–

# Further compounds by rising pIC50 [1], results first:
pIC50 [1],"pIC50 [2, 4]",pIC50 [3],"pIC50 ([2]; MKN-1, assay 2, CTG 120 h, read-out: MKN1 (assay 2) IC50)","pIC50 ([2]; MKN-1, assay 1, CTG 120 h, read-out: MKN1 (assay 1) IC50)",Compound
7.68,–,7.48,–,–,C[C@H](Oc1cc(N2CCc3cccnc32)nc(-c2noc3c2CCC[C@@]32CCCc3sc(N)c(C#N)c32)n1)[C@@H]1CCCN1C [II-90]
7.89,6.22,–,–,–,C[C@H](Oc1cc(-c2cccc(CO)c2)nc(-c2noc3c2CCC[C@@]32CCCc3sc(N)c(C#N)c32)n1)[C@@H]1CCCN1C [II-97]
8.10,–,7.96,–,–,C[C@H](Oc1cc(-n2cc(-c3cccnc3)nn2)nc(-c2noc3c2CCC[C@@]32CCCc3sc(N)c(C#N)c32)n1)[C@@H]1CCCN1C [II-123]
8.30,–,8.40,–,–,C[C@H](Oc1cc(-c2ccn3ncnc3c2)nc(-c2noc3c2CCC[C@@]32CCCc3sc(N)c(C#N)c32)n1)[C@@H]1CCCN1C [II-104]
8.40,–,8.10,–,–,C[C@H](Oc1cc(-c2ccc(N)nc2)nc(-c2noc3c2CCC[C@@]32CCCc3sc(N)c(C#N)c32)n1)[C@@H]1CCCN1C [II-101]
8.40,–,8.00,–,–,CNC(=O)c1cn(-c2cc(O[C@@H](C)[C@@H]3CCCN3C)nc(-c3noc4c3CCC[C@@]43CCCc4sc(N)c(C#N)c43)n2)nn1 [II-122]
8.52,–,8.15,–,–,C[C@H](Oc1cc(-n2ccc(Br)n2)nc(-c2noc3c2CCC[C@@]32CCCc3sc(N)c(C#N)c32)n1)[C@@H]1CCCN1C [II-110]
8.70,6.60,8.22,–,–,C[C@H](Oc1cc(-n2ccc(-c3ccccn3)n2)nc(-c2noc3c2CCC[C@@]32CCCc3sc(N)c(C#N)c32)n1)[C@@H]1CCCN1C [II-119]
8.70,–,8.52,–,–,C[C@H](Oc1cc(-n2ccnc2)nc(-c2noc3c2CCC[C@@]32CCCc3sc(N)c(C#N)c32)n1)[C@@H]1CCCN1C [II-69]
8.70,–,8.30,–,–,C[C@H](Oc1cc(-c2ccn(C)n2)nc(-c2noc3c2CCC[C@@]32CCCc3sc(N)c(C#N)c32)n1)[C@@H]1CCCN1C [II-96]
9.00,6.40,–,–,–,C[C@H](Oc1cc(N2C[C@H](C)NC3(CC3)C2)nc(-c2onc3c2CCC[C@@]32CCCc3sc(N)c(C#N)c32)n1)[C@@H]1CCCN1C [I-8]
9.00,6.30,7.70,< 5.52,–,C[C@H](Oc1cc(N2CC[C@H](N(C)C)C2)nc(-c2noc3c2CCC[C@@]32CCCc3sc(N)c(C#N)c32)n1)[C@@H]1CCCN1C [II-49]
9.00,–,8.70,–,–,C[C@H](Oc1cc(N2CCNC2=O)nc(-c2noc3c2CCC[C@@]32CCCc3sc(N)c(C#N)c32)n1)[C@@H]1CCCN1C [II-64]
